# Experiments:
# AncB1B = test system: T1, AncB1B; experiment: isothermal titration calorimetry; format: binding, synthetic construct; details: 25 °C, 20 mM Tris, 150 mM NaCl, pH 7.6; 10 µM propeller; single site model, five near-identical non-cooperative sites
# T1 construct: single ancestral motif of about 47 residues, blade frame, first-library variant with F23L from error-prone PCR; homo-pentamer; E. coli (pET29), GlcNAc-resin purified
# AncA1B = test system: T2, AncA1B; experiment: isothermal titration calorimetry; format: binding, synthetic construct; details: 25 °C, 20 mM Tris, 150 mM NaCl, pH 7.6; 10 µM propeller; single site model, five near-identical non-cooperative sites
# T2 construct: single ancestral motif of about 47 residues, blade frame, from second ancestral library; homo-pentamer; E. coli (pET29), GlcNAc-resin purified
structure (smiles),measurement,setting,value
CC(=O)N[C@H]1C(O)O[C@H](CO)[C@@H](O)[C@@H]1O (some centres unmarked) [GlcNAc],binding affinity,AncB1B,The earliest evolutionary stage of single motifs was sampled using AncA1B and AncB1B
same,binding affinity,AncA1B,five different parameters were measured for representative variants along the evolutionary trajectory

# Source: paper PMC4735018, “De Novo Evolutionary Emergence of a Symmetrical Protein Is Shaped by Folding Constraints” (Cell, 2016)
